The numbers were not newly measured in patent publication US7947458B1, “Placental human neurokinin B precursor” (Perinatal Diagnostics Limited, priority 1999, dated 2011), which cites them from elsewhere.

The target in one data set is NK1 receptor (Homo sapiens, UniProt P25103).
The target in the next data set is T1, NK2 receptors (Homo sapiens, UniProt P21452).
T1 sequence (P21452 1-398): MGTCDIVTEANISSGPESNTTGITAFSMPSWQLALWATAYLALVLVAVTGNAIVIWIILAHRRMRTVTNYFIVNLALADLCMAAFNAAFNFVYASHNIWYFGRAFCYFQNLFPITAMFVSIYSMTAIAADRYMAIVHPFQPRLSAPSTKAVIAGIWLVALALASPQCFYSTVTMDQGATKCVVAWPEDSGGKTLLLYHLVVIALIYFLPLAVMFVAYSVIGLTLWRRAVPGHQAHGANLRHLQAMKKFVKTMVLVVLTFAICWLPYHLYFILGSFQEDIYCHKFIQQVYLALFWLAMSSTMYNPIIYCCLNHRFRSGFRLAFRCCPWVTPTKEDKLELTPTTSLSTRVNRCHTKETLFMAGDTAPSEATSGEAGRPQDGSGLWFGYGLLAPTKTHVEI

The conditions of data set [1]: dog, in vivo.
The target in a further data set is T2, NK3 receptor (Homo sapiens, UniProt P29371).
T2 sequence (P29371 1-465): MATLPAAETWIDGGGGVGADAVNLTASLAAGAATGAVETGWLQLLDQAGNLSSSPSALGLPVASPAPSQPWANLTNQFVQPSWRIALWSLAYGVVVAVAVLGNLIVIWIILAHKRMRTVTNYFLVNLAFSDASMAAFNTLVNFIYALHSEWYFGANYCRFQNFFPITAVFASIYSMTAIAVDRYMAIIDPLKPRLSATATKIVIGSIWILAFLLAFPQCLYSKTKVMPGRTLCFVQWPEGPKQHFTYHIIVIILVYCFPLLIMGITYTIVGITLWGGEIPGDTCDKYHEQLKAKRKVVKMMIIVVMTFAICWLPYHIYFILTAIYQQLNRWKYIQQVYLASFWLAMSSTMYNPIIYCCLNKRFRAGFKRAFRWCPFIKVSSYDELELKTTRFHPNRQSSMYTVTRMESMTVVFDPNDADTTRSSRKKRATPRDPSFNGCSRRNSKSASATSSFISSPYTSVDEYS

For data set [2] the following is noted: intravenous infusion, rats.
For data set [3] the following is noted: intravenous injections, guinea pigs.

Read-outs that look alike come from different tables or passages of the source. Ends that are not written are not given here.

Sequence of NK1 receptor (P25103 whole entry, species assumed): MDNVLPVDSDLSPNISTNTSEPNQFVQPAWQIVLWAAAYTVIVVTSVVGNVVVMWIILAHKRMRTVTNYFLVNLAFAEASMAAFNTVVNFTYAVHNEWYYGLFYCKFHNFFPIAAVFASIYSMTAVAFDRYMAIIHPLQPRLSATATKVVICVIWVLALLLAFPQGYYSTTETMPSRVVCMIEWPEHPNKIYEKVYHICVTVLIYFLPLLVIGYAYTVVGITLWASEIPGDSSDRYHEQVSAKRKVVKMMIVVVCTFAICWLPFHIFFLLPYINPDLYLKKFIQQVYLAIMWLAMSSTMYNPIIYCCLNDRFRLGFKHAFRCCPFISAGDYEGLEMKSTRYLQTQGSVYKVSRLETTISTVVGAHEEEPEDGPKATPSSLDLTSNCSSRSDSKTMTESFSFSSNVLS

`CN(Cc1ccccc1)C(=O)[C@H](Cc1ccc2ccccc2c1)NC(=O)[C@@H]1C[C@@H](O)CN1C(=O)c1cn(C)c2ccccc12` [FK 888]: on NK1 receptor, the “affinity for the NK1 receptor” value was “high affinity”. For `CC(=O)NC1(c2ccccc2)CCN(CC[C@H](CN(C)C(=O)c2ccccc2)c2ccc(Cl)c(Cl)c2)CC1` [SR 48968], at NK2 receptors, the “affinity and selectivity for NK2 receptors” value is “high affinity and selectivity”. “neurokinin A (HKTDSFVGLM-NH2; ends and bridges not checked; UniProt P20366 98-107, looked up) [substance K, tachykinin designated substance K or neurokinin A]”: the “effect on heart rate” value in data set [1] is recorded as “slow down the heart rate”. As to neurokinin B [NKB], in the data set on mesenteric vascular bed, the “vasoconstriction, potency rank among neurokinins” value is on record as “most potent neurokinin to cause vasoconstriction”. For the same compound, the “contraction, potency rank among neurokinins” value in the data set on hepatic portal vein is recorded as “most potent neurokinin”. Moreover, in the data set with NK3 receptor, the “potency rank among tachykinins at the NK3 receptor” value is reported as “most potent member of the family”. Besides, the “effect on blood pressure” value was “increase in blood pressure” in data set [2] and “dose related hypertension” in data set [3]. Consider “substance P (RPKPQQFFGLM-NH2; ends and bridges not checked; UniProt P20366 58-68, looked up)”, for which the “effect on heart rate” value in data set [1] is reported as “slow down the heart rate”.
